Measurements from patent US7501410B2, “Methods of inhibiting BTK and SYK protein kinases” (Roche Palo Alto LLC, priority 2006, dated 2009).
“And” between values parts separate entries of the source, which are not always exact repeats. Equal values may be shown once. Read-outs that look alike come from different tables or passages of the source.

How the values were obtained:
[1] = molecular target: T1, Spleen Tyrosine Kinase (SYK) aa 360-635 (Homo sapiens, UniProt P43405); assay: Determination of IC50 of Spleen Tyrosine Kinase (SYK) inhibition, 33P kinase assay; type: biochemical; conditions: recombinant human SYK360-635, 20 μM ATP
T1 construct: truncated construct of Spleen Tyrosine Kinase aa 360-635; made in house
Experimental: Determination of IC50 of Spleen Tyrosine Kinase (SYK) Inhibition
The SYK kinase assay is a standard kinase assay adapted to a 96 well plate format. This assay is performed in 96-well format for IC50 determination with 8 samples which represented 10 half log dilutions and a 40 μL reaction volume. The assay measures the incorporation of radiolabeled ^33P γATP into an N-terminally biotinylated peptide substrate, derived from naturally occurring phosphoacceptor consensus sequence (Biotin-11aa DY*E). Phosphorylated products were detected upon termination of reactions with EDTA and the addition of Streptavidin coated beads. • Assay plates: 96-well MultiScreen 0.65 um filter plates (Millipore Cat. No.: MADVNOB10) • Streptavidin coated beads: Streptavidin Sepharose TM, suspension 5.0 mL, in 50 mM EDTA/PBS diluted (1:100), (Amersham, Cat. No.: 17-5113-01) • Compounds: 10 mM in 100% dimethylsulfoxide (DMSO), final conc.: compound 0.003-100 uM in 10% DMSO • Enzyme: SYK RPA purified, truncated construct of Spleen Tyrosine Kinase aa 360-635, stock solution 1 mg/mL, MW: 31.2 KDa, final conc.:0.0005 μM. • Peptide 1: biotinylated peptide is derived from a naturally occurring phosphor-acceptor consensus sequence (Biotin-[…]), special order from QCB, stock solution 20 mM, final conc.: 5.0 μM. • ATP: Adenosine-5′-triphosphate 20 mM, (ROCHE Cat. No.:93202720), final concentration: 20 μM • Buffer: HEPES: 2-Hydroxyethyl piperazine-2-ethanesulfonic acid (Sigma, Cat. No.: H-3375) final concentration: 50 mM HEPES pH7.5 • BSA: Bovine Serum Albumin Fraction V, fatty acid free (Roche Diagnostics GmbH, Cat. No. 9100221) diluted to a final concentration of 0.1% • EDTA: EDTA stock solution 500 mM, (GIBCO, Cat. No.: 15575-038) final concentration: 0.1 mM • DTT: 1,4-Dithiothreitol (Roche Diagnostics GmbH, Cat. No.: 197777), final conc.: 1 mM • MgCl2×6H2O: MERCK, Cat. No.: 105833.1000, final concentration: 10 mM • Assay Dilution Buffer (ADB): 50 mM HEPES, 0.1 mM EGTA, 0.1 mM Na Vanadate, 0.1 mM β-glycerophosphate, 10 mM MgCl2, 1 mM DTT, 0,1% BSA, pH 7.5 • Bead wash buffer: 10 g/L PBS (Phosphate buffered saline) with 2M NaCl+1% phosphoric acid Experimental Method:
In 40 μL volume, 26 μL of ADB diluted, purified recombinant human SYK360-635 [0.5 nM] was mixed with 4 μL of 10× concentrations of the test compounds, [usually 100 μM-0.003 μM] in [10%] DMSO and the mixture was incubated for 10 min at RT.
The kinase reaction was initiated by the addition of 10 μL 4× substrate cocktail containing the DYE peptide substrate [0 or 5 μM], ATP [20 μM] and […] [2 μCi/rxn]. After incubation at 30° C. for 15 min, the reaction was terminated by the transfer of 25 μL of the reaction sample to a 96 well 0.65 um Millipore MADVNOB membrane/plate containing 200 μL 5 mM EDTA and 20% Streptavidine coated beads in PBS.
The unbound radionucleotides were washed under vacuum with 3×250 μL 2M NaCl; 2×250 μL 2M NaCl+1% phosphoric acid; 1×250 μL H2O. After the last wash membrane/plates were transferred to an adaptor plate, heat dried for 15 min at 60° C., and 50 μL scintillation cocktail was added to each well and 4 h later the amount of radioactivity was counted in a top counter.
The IC50 was calculated using a non-linear curve fit with XLfit software (ID Business Solution Ltd., Guilford, Surrey, UK). […] Representative results are in Table 1.

[2] = molecular target: T2, Bruton's Tyrosine Kinase (Btk) (Homo sapiens, UniProt Q06187); assay: Determination of IC50 of Bruton's Tyrosine Kinase (Btk) inhibition, 33P filtration assay; type: biochemical; conditions: His-tagged full-length Btk, 100 μM ATP
T2 construct: 5-10 nM Btk enzyme (His-tagged, full-length); His tag
T2 sequence (Q06187 whole entry): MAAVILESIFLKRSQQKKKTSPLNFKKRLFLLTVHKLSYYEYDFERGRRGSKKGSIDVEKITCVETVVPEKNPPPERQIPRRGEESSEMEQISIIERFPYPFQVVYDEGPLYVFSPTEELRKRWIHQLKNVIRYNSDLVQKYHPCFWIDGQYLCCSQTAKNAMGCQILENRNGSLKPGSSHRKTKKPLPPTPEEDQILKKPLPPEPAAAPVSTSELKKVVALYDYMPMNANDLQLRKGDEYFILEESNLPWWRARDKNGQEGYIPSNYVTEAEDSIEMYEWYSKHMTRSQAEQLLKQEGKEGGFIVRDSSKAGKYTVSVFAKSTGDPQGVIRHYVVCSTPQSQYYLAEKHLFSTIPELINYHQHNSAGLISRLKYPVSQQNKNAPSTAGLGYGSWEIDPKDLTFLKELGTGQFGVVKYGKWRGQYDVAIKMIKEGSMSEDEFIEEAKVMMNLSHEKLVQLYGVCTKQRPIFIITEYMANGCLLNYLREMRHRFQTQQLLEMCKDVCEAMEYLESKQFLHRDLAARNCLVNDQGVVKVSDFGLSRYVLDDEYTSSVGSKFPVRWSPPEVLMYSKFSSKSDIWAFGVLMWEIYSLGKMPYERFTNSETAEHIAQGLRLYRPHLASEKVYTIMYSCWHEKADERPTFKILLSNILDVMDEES
Excerpt: Determination of IC50 of Bruton's Tyrosine Kinase (Btk) Inhibition
The assay is a capture of radioactive ^33P phosphorylated product through filtration. The interactions of Btk, biotinylated SH2 peptide substrate (Src homology), and ATP lead to phosphorylation of the peptide substrate. Biotinylated product is bound streptavidin sepharose beads. All bound, radiolabeled products are detected by scintillation counter.
Plates assayed are 96-well polypropylene (Greiner) and 96-well 1.2 μm hydrophilic PVDF filter plates (Millipore). Concentrations reported here are final assay concentrations: 10-100 μM compounds in DMSO (Burdick and Jackson), 5-10 nM Btk enzyme (His-tagged, full-length), 30 μM peptide substrate (Biotin-Aca-[…]-NH2), 100 μM ATP (Sigma), 8 mM imidazole (Sigma, pH 7.2), 8 mM glycerol-2-phosphate (Sigma), 200 μM EGTA (Roche Diagnostics), 1 mM MnCl2 (Sigma), 20 mM MgCl2 (Sigma), 0.1 mg/ml BSA (Sigma), 2 mM DTT (Sigma), 1 μCi ^33P ATP (Amersham), 20% streptavidin sepharose beads (Amersham), 50 mM EDTA (Gibco), 2 M NaCl (Gibco), 2 M NaCl w/1% phosphoric acid (Gibco), microscint-20 (Perkin Elmer).
IC50 determinations are calculated from 10 data points per compound utilizing data produced from a standard 96-well plate assay template. One control compound and seven unknown inhibitors were tested on each plate and each plate was run twice. Typically, compounds were diluted in half-log starting at 100 μM and ending at 3 nM. The control compound was staurosporine. Background was counted in the absence of peptide substrate. Total activity was determined in the presence of peptide substrate. The following protocol was used to determine BTK inhibition.
1) Sample preparation: The test compounds were diluted at half-log increments in assay buffer (imidazole, glycerol-2-phosphate, EGTA, MnCl2, MgCl2, BSA).
2) Bead preparation • a.) rinse beads by centrifuging at 500 g • b.) reconstitute the beads with PBS and EDTA to produce a 20% bead slurry
3) Pre-incubate reaction mix without substrate (assay buffer, DTT, ATP, ^33P ATP) and mix with substrate (assay buffer, DTT, ATP, ^33P ATP, peptide substrate) 30° C. for 15 min.
4) To start assay, pre-incubate 10 μL BTK in enzyme buffer (imidazole, glycerol-2-phosphate, BSA) and 10 μL of test compounds for 10 min at RT.
5) Add 30 μL reaction mixture without or with substrate to BTK and compounds.
6) Incubate 50 μL total assay mix for 30 min at 30° C.
7) Transfer 40 μL of assay to 150 μL bead slurry in filter plate to stop reaction.
8) Wash filter plate after 30 min, with following steps • a. 3 ×250 μL NaCl • b. 3×250 μL NaCl containing 1% phosphoric acid • c. 1×250 μL H2O
9) Dry plate for 1 h at 65° C. or overnight at RT
10) Add 50 μL microscint-20 and count ^33P cpm on scintillation counter.
Calculate percent activity from raw data in cpm percent activity=(sample−bkg)/(total activity−bkg)×100

| Compound | IC50 ([1]; read-out: IC50 (μM) SYK Assay) | IC50 [2] | IC50 ([1]; IC50 (μM) SYK Assay) |
| --- | --- | --- | --- |
| Cc1cc(Nc2nn(C(C)C)c(=O)c3ccc(CO)cc23)n[nH]1 [Example M-10, 6-Hydroxymethyl-2-isopropyl-4-(5-methyl-1H-pyrazol-3-yl-amino)-2H-phthalazin-1-one] | 56.9 µM | – | – |
| Cc1cc(Nc2nn(C(C)C)c(=O)c3ccc(N4CCOCC4)cc23)n[nH]1 [Example F-2, 2-Isopropyl-4-(5-methyl-1H-pyrazol-3-ylamino)-6-morpholino-2H-phthalazin-1-one] | 36.4 µM | > 100 µM | – |
| Cc1cc(Nc2nn(-c3ccc(Cl)cc3)c(=O)c3ccccc23)n[nH]1 [Example B-1, 2-(4-Chloro-phenyl)-4-(5-methyl-1H-pyrazol-3-ylamino)-2H-phthalazin-1-one] | 1.19 µM | 5.03 µM | – |
| Cc1cc(Nc2nn(C(C)C)c(=O)c3cc(N4CCCCC4)ccc23)n[nH]1 [Example F-10, 2-Isopropyl-4-(5-methyl-1H-pyrazol-3-ylamino)-7-piperidin-1-yl-2H-phthalazin-1-one] | – | 0.608 µM | 0.551 µM and 4.3 µM and 3.57 µM |
| Cc1cc(Nc2nn(Cc3cc(F)ccc3F)c(=O)c3ccccc23)n[nH]1 [Example A-13, 2-(2,5-difluoro-benzyl)-4-(5-methyl-1H-pyrazol-3-yl-amino)-2H-phthalazin-1-one] | 22.9 µM | 38.6 µM | – |
| Cc1cc(Nc2nn(Cc3csc(C)n3)c(=O)c3ccccc23)n[nH]1 [Example A-16, 4-(5-methyl-1H-pyrazol-3-ylamino)-2-(2-methyl-thiazol-4-ylmethyl)-2H-phthalazin-1-one] | 87.9 µM | 25.2 µM | – |
| Cc1ccc(-n2nc(Nc3cc[nH]n3)c3ccccc3c2=O)cc1 [Example A-10, 4-(1H-pyrazol-3-yl-amino)-2-p-tolyl-2H-phthalazin-1-one] | – | 16.6 µM | – |
| CC(=O)Nc1ccc2c(Nc3cc(C)[nH]n3)nn(C(C)C)c(=O)c2c1 [Example I-8, N-[3-Isopropyl-1-(5-methyl-1H-pyrazol-3-ylamino)-4-oxo-3,4-dihydro-phthalazin-6-yl]-acetamide] | 5.62 µM | 2.23 µM | – |
| Cc1cc(Nc2nn(C(C)C)c(=O)c3cc(S(C)(=O)=O)ccc23)n[nH]1 [Example H-2, 2-Isopropyl-7-methanesulfonyl-4-(5-methyl-1H-pyrazol-3-ylamino)-2H-phthalazin-1-one] | 4.29 µM | 1.11 µM | – |
| Cc1cc(Nc2nn(CC(F)(F)F)c(=O)c3ccccc23)n[nH]1 [Example A-5, 4-(5-methyl-1H-pyrazol-3-ylamino)-2-(2,2,2-trifluoro-ethyl)-2H-phthalazin-1-one] | 7.68 µM | 8.22 µM | – |
| 4-(5-Methyl-2H-pyrazole-3-ylamino)-phenyl-2H-phthalazin-1-one [Example A-1] | – | 1.25 µM | – |
| COc1ccc(-n2nc(Nc3cc(C)[nH]n3)c3ccccc3c2=O)cc1 [Example A-9, 2-(4-methoxy-phenyl)-4-(5-methyl-1H-pyrazol-3-ylamino)-2H-phthalazin-1-one] | – | 5.87 µM | – |
| Cc1cc(Nc2nn(Cc3ccccc3)c(=O)c3ccccc23)n[nH]1 [Example E-1, 2-Benzyl-4-(5-methyl-1H-pyrazol-3-ylamino)-2H-phthalazin-1-one] | – | > 100 µM | – |
| Cc1cc(Nc2nn(-c3ccc(C(F)(F)F)cc3)c(=O)c3ccccc23)[nH]n1 [Example A-25, 4-(5-methyl-1H-pyrazol-3-ylamino)-2-(4-trifluoromethyl-phenyl)-2H-phthalazin-1-one] | 0.525 µM | – | – |
| Cc1ccc(-n2nc(Nc3cc(C)[nH]n3)c3ccccc3c2=O)cc1 [Example A-6, 4-(5-methyl-1H-pyrazol-3-ylamino)-2-p-tolyl-2H-phthalazin-1-one] | – | 38.2 µM | – |
| Cc1cc(Nc2nn(Cc3ccccn3)c(=O)c3ccccc23)[nH]n1 [Example A-22, 4-(5-methyl-2H-pyrazol-3-ylamino)-2-pyridin-2-ylmethyl-2H-phthalazin-1-one] | 78.1 µM | – | – |
| Cc1cc(Nc2nn(C(C)C)c(=O)c3ccccc23)n[nH]1 [Example A-23, 2-isopropyl-4-(5-methyl-1H-pyrazol-3-ylamino)-2H-phthalazin-1-one] | – | 50.9 µM | – |
| Cc1cc(Nc2nn(CC(C)C)c(=O)c3ccccc23)n[nH]1 [Example A-4, 2-isobutyl-4-(5-methyl-1H-pyrazol-3-ylamino)-2H-phthalazin-1-one] | – | 11.4 µM | – |
| Cc1cc(Nc2nn(-c3ccc(F)cc3)c(=O)c3ccccc23)n[nH]1 [Example A-7, 2-(4-fluoro-phenyl)-4-(5-methyl-1H-pyrazol-3-ylamino)-2H-phthalazin-1-one] | – | 6.3 µM | – |
| COCc1ccc2c(Nc3cc(C)[nH]n3)nn(C(C)C)c(=O)c2c1 [Example K-1, 2-Isopropyl-7-methoxymethyl-4-(5-methyl-1H-pyrazol-3-ylamino)-2H-phthalazin-1-one] | 1.25 µM | – | – |
| Cc1cc(Nc2nn(C)c(=O)c3ccccc23)n[nH]1 [Example A-3, 2-methyl-4-(5-methyl-1H-pyrazol-3-yl-amino)-2H-phthalazin-1-one] | – | 70.5 µM | – |
| Cc1cc(Nc2nn(Cc3cccnc3)c(=O)c3ccccc23)[nH]n1 [Example A-18, 4-(5-methyl-2H-pyrazol-3-ylamino)-2-pyridin-3-ylmethyl-2H-phthalazin-1-one] | 6.53 µM | – | – |
